We go through 31 compounds from ChEMBL document CHEMBL1201862, “PubChem BioAssay data set” (2004).

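Compound exposure: 48 hours, 5 concentrations, 96-well plates. GI50 marks 50% less growth.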 The source made the active and inactive calls. Cut-off read from the data, not from the text of the source: active = GI50 up to about 1.1 µM and inactive = higher.

Some test systems named below: DMS-273; KM-20L2; Hs-578T; T47D; SR; ACHN; LXFL 529; RXF 631; BT-549.
Test in all cases: NCI tumour cell line growth inhibition, 48 h

For the compound `O=C(O)c1cn2c3c(cc(N4CCN(CCO)CC4)cc3c1=O)SCC2`, the GI50 with DMS-273 and in the test on KM-20L2 was > 100 µM (inactive) in each case.

As for `O=C(NC(Cc1ccc(I)cc1)C(=O)O)c1ccc(Cl)cc1` (configuration not stated), the GI50 in the test on DMS-273 and with KM-20L2 was > 100 µM (inactive) in each case.

For `C=CC1OC(CCCOC(=O)C(C)(C)C)O[C@@H]1CC` (some centres not stated), the GI50 in the test with Hs-578T, in the test with T47D, in the test on SR and in the test on ACHN was > 100 µM (inactive) in each case.

For the compound `Cc1ccc(C)c(NC(=O)C(=O)C(C(=O)c2ccc3ccccc3c2)C2OC(=O)c3ccccc32)c1` (configuration not stated), the GI50 with LXFL 529 is 7.59 µM (inactive); with DMS-273, 3.87 µM (inactive); with SR it was 4.45 µM (inactive); in the test on KM-20L2, 21.3 µM (inactive); in the test on ACHN, 26.5 µM (inactive); in the test on RXF 631, 16.1 µM (inactive).

For `OC1CCSc2ccccc21` (configuration not stated), the GI50 in the test on LXFL 529, in the test with DMS-273, in the test on SR, with KM-20L2 and in the test on ACHN was > 100 µM (inactive) throughout.

With `Cc1cn(C2CCN(CC3COC(C)(C)O3)O2)c(=O)[nH]c1=O` (configuration not stated), the GI50 in the test on Hs-578T, in the test on T47D, with SR, in the test on BT-549 and with ACHN was > 100 µM (inactive) in each case.

With `CCOC(=O)c1nc2ccccc2nc1Nc1ccc(C(=O)OC)s1`, the GI50 in the test on Hs-578T, in the test with T47D, in the test on SR, in the test on BT-549 and in the test on ACHN was > 100 µM (inactive) each time.

As to `N#CC1(C#N)N[C@@H](c2ccsc2)[C@H]2C(=O)N(c3ccccc3)C(=O)[C@H]21`, the GI50 in the test on Hs-578T is 83.6 µM (inactive); in the test with T47D, 63.2 µM (inactive); in the test on SR it was 21.3 µM (inactive); in the test on BT-549, 97.7 µM (inactive); in the test with ACHN it was > 100 µM (inactive).

Take `Cc1c(Cl)nc(Nc2nc3ccccc3[nH]2)nc1Cl`: the GI50 was 27.2 µM (inactive) in the test with Hs-578T; 43.7 µM (inactive) with T47D; 19.9 µM (inactive) with SR; > 100 µM (inactive) in the test with BT-549; > 100 µM (inactive) in the test with ACHN.

As for `C[n+]1c2ccccc2n2c3ccccc3c(NCCCn3ccnc3)c(C#N)c21`, the GI50 was 1.64 µM (inactive) in the test on Hs-578T; 1.61 µM (inactive) with T47D; 1.27 µM (inactive) in the test on SR; 17.6 µM (inactive) in the test with BT-549; 3.48 µM (inactive) with ACHN.

For `CC[C@@]1(O)C[C@H](OC2CC(N(C)C)C(O)C(C)O2)c2c(cc3c(c2O)C(=O)c2c(O)ccc(O)c2C3=O)[C@H]1C(=O)OC` (some centres not stated), the GI50 is 0.0213 µM (active) in the test on DMS-273 and 0.0702 µM (active) with KM-20L2.

Take `CCOC(=O)[C@H]1Nc2ccc(Cl)cc2[C@H]2c3ccccc3O[C@H]21`: the GI50 was 32.1 µM (inactive) in the test on LXFL 529; 30.1 µM (inactive) in the test on DMS-273; 94.8 µM (inactive) in the test with SR; > 100 µM (inactive) in the test with KM-20L2; > 100 µM (inactive) in the test on ACHN; > 100 µM (inactive) with RXF 631.

Turning to `Nc1ccn(C2OC(CO)C(O)C2(F)F)c(=O)n1` (configuration not stated), the GI50 with T47D was 0.387 µM (active); in the test on SR it was 0.158 µM (active); in the test with BT-549 it was 0.33 µM (active).

Turning to `CCOC(=O)c1c(NC(=O)Nc2ccccc2)c(C(N)=O)c2n1CCCCC2`, the GI50 with Hs-578T, with T47D, with SR, in the test on BT-549 and in the test with ACHN was > 100 µM (inactive) each time.

Turning to `CCOP(=O)(COCCn1nc(Br)c(=O)[nH]c1=O)OCC`, the GI50 in the test on Hs-578T, in the test with T47D, in the test on SR and in the test on ACHN was > 100 µM (inactive) in each case.

In the case of `O=C(Nc1ccc(Cl)cc1)C(=O)C(C(=O)c1ccccc1-c1ccccc1)C1OC(=O)c2ccccc21` (configuration not stated), the GI50 is 16 µM (inactive) with LXFL 529; 29 µM (inactive) in the test with DMS-273; 17.6 µM (inactive) in the test with SR; 23.7 µM (inactive) with KM-20L2; 32.4 µM (inactive) in the test with ACHN.

`CCCCCCCCCCCCCCCCNCC(O)CN` (configuration not stated): the GI50 is 3.96 µM (inactive) in the test on DMS-273 and 2.65 µM (inactive) in the test with KM-20L2.

Regarding `Cc1cccc(C(O)c2ccccn2)c1O` (configuration not stated), the GI50 was > 100 µM (inactive) in the test with Hs-578T; 15.7 µM (inactive) in the test on T47D; > 100 µM (inactive) in the test on SR; > 100 µM (inactive) in the test with BT-549; > 100 µM (inactive) with ACHN.

Turning to `COc1cc(C2S/C(=C/c3ccccc3)C(=O)N2c2cccc(NC(C)=O)c2)cc(OC)c1OC` (configuration not stated), the GI50 was 15.3 µM (inactive) in the test with Hs-578T; 15.4 µM (inactive) in the test with T47D; 37.9 µM (inactive) in the test on SR; 24.7 µM (inactive) in the test with BT-549; 37.2 µM (inactive) in the test with ACHN.

For the compound `CN1C[C@H]2[C@@H](C1=O)[C@H](c1ccc([N+](=O)[O-])cc1)ON2C`, the GI50 in the test with Hs-578T, with T47D, in the test with SR and in the test on ACHN was > 100 µM (inactive) throughout.

Consider `Cc1ccc(C2=C(C#N)C(N)OC3=C2COc2ccccc23)cc1` (configuration not stated), for which the GI50 in the test with SR is 32.6 µM (inactive); with BT-549 it was > 100 µM (inactive); in the test on ACHN, 35.2 µM (inactive).

With `O=C1/C(=C\c2cccc(Oc3ccccc3)c2)SC(c2ccccc2)N1Cc1ccccc1` (configuration not stated), the GI50 with Hs-578T was 29.1 µM (inactive); in the test with T47D, 26.2 µM (inactive); with SR it was 23.9 µM (inactive); in the test with BT-549, 25.2 µM (inactive); in the test on ACHN it was 52.8 µM (inactive).

On to `CCOC(=O)c1ccc(Nc2nc3cc(C(F)(F)F)ccc3nc2C(=O)OCC)cc1`, for which the GI50 with Hs-578T was > 100 µM (inactive); with T47D, 69.3 µM (inactive); in the test with SR, > 100 µM (inactive); with BT-549, 72.6 µM (inactive); in the test on ACHN it was 42 µM (inactive).

As for `O=C(O)C1=C(CO)Oc2cc3c(cc2C1c1ccc2c(c1)OCO2)OCO3` (configuration not stated), the GI50 in the test with DMS-273, with KM-20L2, with ACHN and with RXF 631 was > 100 µM (inactive) throughout.

As for `COC(=O)C1C(O)C(C)C(O)OC1C(C)C(O)C(C)/C=C\C=C(/C)C(=O)Nc1c(C)c(OC(C)=O)c2c(c1O)C(=O)C(C)=C1OCOC(/C(C)=C/C(C)=O)=C12` (configuration not stated), the GI50 with DMS-273 is 13.3 µM (inactive); in the test on KM-20L2 it was 12.9 µM (inactive).

Turning to `CC(=O)O[C@H]1C[C@]2(C)C(CCC3O[C@@]32C)[C@@]2(CC(c3ccoc3)OC2O)[C@@H]1C` (some centres not stated), the GI50 was > 100 µM (inactive) with Hs-578T; 39.3 µM (inactive) in the test with T47D; 39.2 µM (inactive) with SR; 40 µM (inactive) with BT-549; > 100 µM (inactive) with ACHN.

Turning to `Cc1cc(O)c(C(C)C)cc1SC#N`, the GI50 with Hs-578T was 20.5 µM (inactive); with T47D it was 17.8 µM (inactive); in the test on BT-549 it was 19.6 µM (inactive); in the test with ACHN it was 16.2 µM (inactive).

For `O=S(=O)(O)c1ccc(/N=N\c2ccc(/N=N\c3ccc(/C=C/c4ccc(/N=[N+](/[O-])c5ccc(/C=C/c6ccc(/N=N/c7ccc(/N=N\c8ccc(S(=O)(=O)O)cc8)cc7)cc6S(=O)(=O)O)c(S(=O)(=O)O)c5)cc4S(=O)(=O)O)c(S(=O)(=O)O)c3)cc2)cc1`, the GI50 with DMS-273 and in the test on KM-20L2 was > 100 µM (inactive) each time.

With `COc1cc(O)c2c(c1)C(=O)c1cc3c(c(O)c1C2=O)C(OC1OC(C)C(O)C(O)C1OC)C(OC)C(C)(O)C3=O` (configuration not stated), the GI50 with DMS-273 was 0.644 µM (active); with KM-20L2, 1.1 µM (active).

`O=Cc1c(Cn2ccnc2)c2cc([N+](=O)[O-])ccc2n1Cc1ccccc1`: the GI50 with DMS-273 was > 100 µM (inactive); in the test with KM-20L2, 89.9 µM (inactive).

As for `CC[C@@]1(O)C(=O)OCc2c1cc1n(c2=O)Cc2cc3c(N)cccc3nc2-1` [9-AMINOCAMPTOTHECIN], the GI50 with Hs-578T was 4.22 µM (inactive); with LXFL 529, 0.244 µM (active); in the test with DMS-273 it was < 0.01 µM (active); in the test with SR, < 0.215 µM (active); with KM-20L2, 0.0643 µM (active); with BT-549, 0.0684 µM (active). In addition, the values for the GI50 in the test with ACHN and in the test on RXF 631 were < 0.01 µM (active) and 0.0375 µM (active), respectively.
